According to patent EP3717657B1, “A SYSTEM FOR ASSESSING MICROBIAL SUSCEPTIBILITY TO ANTIBIOTIC AGENTS” (Ascilion AB, priority 2017, dated 2019):
Converted amounts (≈) assume the structure as drawn.

Legend:
[1] = system: Enterococcus faecalis (ATCC 29212); assay: Antibiotic susceptibility by glucose consumption in culture medium, blood culture bottle inoculum (Example 1); type: cell-based; conditions: for Glucose concentration t=0: 0 minutes; for Glucose concentration t=60: 60 minutes; for Glucose concentration t=120: 120 minutes; for Glucose concentration t=180: 180 minutes; for Glucose concentration t=240: 240 minutes; for dC/dT: rate of change in glucose concentration;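 on dC/dT: rate calculated between the 60 and 180 min readings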
Method in brief: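 Bacteria grown in blood culture bottles until positive, diluted 1:100 into cation-adjusted Mueller-Hinton broth with glucose at 1.0 mg/mL plus antibiotic (µg/mL). Glucose read by glucometer at 0–240 min.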

[2] = system: Escherichia coli ATCC 25922; conditions: E.coli, cited from earlier work
[3] = system: Staphylococcus aureus ATCC 29213; conditions: S.aureus, cited from earlier work; for MIC EUCAST, range in parentheses: range obtained by EUCAST from ISO 20776-1: 2006; for MIC EUCAST: reference MIC value, EUCAST QC tables Version 7.0, 2017
[4] = system: Enterococcus faecalis ATCC 29212; conditions: E.faecalis, cited from earlier work
[5] = range obtained by EUCAST from ISO 20776-1: 2006
[6] = reference MIC value, EUCAST QC tables Version 7.0, 2017

SMILES: CO[C@@]1(NC(=O)Cc2cccs2)C(=O)N2C(C(=O)O)=C(COC(N)=O)CS[C@@H]21 [Cefoxitin]
- MIC ([1]; Enterococcus faecalis, ATCC29212, E.faecalis, initial value, disregarded because rate of decrease was higher at 32 µg/mL, read-out: MIC value initially obtained): 4 µg/mL (≈ 9.36 µM)
- F=the rate of change in glucose concentration in relation to the reference ([1]; [Ab] 0,5 µg/mL): 88%
- Glucose concentration t=0 ([1]; [Ab] 0,5 µg/mL): 145
- Glucose concentration t=60 ([1]; [Ab] 0,5 µg/mL): 150
- Glucose concentration t=120 ([1]; [Ab] 0,5 µg/mL): 144
- Glucose concentration t=180 ([1]; [Ab] 0,5 µg/mL): 87
- Glucose concentration t=240 ([1]; [Ab] 0,5 µg/mL): 32
- dC/dT ([1]; [Ab] 0,5 µg/mL): 32
- F=the rate of change in glucose concentration in relation to the reference ([1]; [Ab] 0,25 µg/mL): 93%
- Glucose concentration t=0 ([1]; [Ab] 0,25 µg/mL): 151
- Glucose concentration t=60 ([1]; [Ab] 0,25 µg/mL): 155
- Glucose concentration t=120 ([1]; [Ab] 0,25 µg/mL): 138
- Glucose concentration t=180 ([1]; [Ab] 0,25 µg/mL): 88
- Glucose concentration t=240 ([1]; [Ab] 0,25 µg/mL): 34
- dC/dT ([1]; [Ab] 0,25 µg/mL): 34
- F=the rate of change in glucose concentration in relation to the reference ([1]; [Ab] 1 µg/mL): 85%
- Glucose concentration t=0 ([1]; [Ab] 1 µg/mL): 148
- Glucose concentration t=60 ([1]; [Ab] 1 µg/mL): 159
- Glucose concentration t=120 ([1]; [Ab] 1 µg/mL): 142
- Glucose concentration t=180 ([1]; [Ab] 1 µg/mL): 98
- Glucose concentration t=240 ([1]; [Ab] 1 µg/mL): 31
- dC/dT ([1]; [Ab] 1 µg/mL): 31
- F=the rate of change in glucose concentration in relation to the reference ([1]; [Ab] 2 µg/mL): 99%
- Glucose concentration t=0 ([1]; [Ab] 2 µg/mL): 149
- Glucose concentration t=60 ([1]; [Ab] 2 µg/mL): 169
- Glucose concentration t=120 ([1]; [Ab] 2 µg/mL): 145
- Glucose concentration t=180 ([1]; [Ab] 2 µg/mL): 98
- Glucose concentration t=240 ([1]; [Ab] 2 µg/mL): 36
- dC/dT ([1]; [Ab] 2 µg/mL): 36
- F=the rate of change in glucose concentration in relation to the reference ([1]; [Ab] 4 µg/mL): 74%
- Glucose concentration t=0 ([1]; [Ab] 4 µg/mL): 150
- Glucose concentration t=60 ([1]; [Ab] 4 µg/mL): 159
- Glucose concentration t=120 ([1]; [Ab] 4 µg/mL): 146
- Glucose concentration t=180 ([1]; [Ab] 4 µg/mL): 106
- Glucose concentration t=240 ([1]; [Ab] 4 µg/mL): 27
- dC/dT ([1]; [Ab] 4 µg/mL): 27
- F=the rate of change in glucose concentration in relation to the reference ([1]; [Ab] 8 µg/mL): 63%
- Glucose concentration t=0 ([1]; [Ab] 8 µg/mL): 144
- Glucose concentration t=60 ([1]; [Ab] 8 µg/mL): 149
- Glucose concentration t=120 ([1]; [Ab] 8 µg/mL): 147
- Glucose concentration t=180 ([1]; [Ab] 8 µg/mL): 104
- Glucose concentration t=240 ([1]; [Ab] 8 µg/mL): 23
- dC/dT ([1]; [Ab] 8 µg/mL): 23
- F=the rate of change in glucose concentration in relation to the reference ([1]; [Ab] 16 µg/mL): 68%
- Glucose concentration t=0 ([1]; [Ab] 16 µg/mL): 148
- Glucose concentration t=60 ([1]; [Ab] 16 µg/mL): 154
- Glucose concentration t=120 ([1]; [Ab] 16 µg/mL): 148
- Glucose concentration t=180 ([1]; [Ab] 16 µg/mL): 105
- Glucose concentration t=240 ([1]; [Ab] 16 µg/mL): 25
- dC/dT ([1]; [Ab] 16 µg/mL): 25
- F=the rate of change in glucose concentration in relation to the reference ([1]; [Ab] 32 µg/mL): 74%
- Glucose concentration t=0 ([1]; [Ab] 32 µg/mL): 148
- Glucose concentration t=60 ([1]; [Ab] 32 µg/mL): 155
- Glucose concentration t=120 ([1]; [Ab] 32 µg/mL): 140
- Glucose concentration t=180 ([1]; [Ab] 32 µg/mL): 102
- Glucose concentration t=240 ([1]; [Ab] 32 µg/mL): 27
- dC/dT ([1]; [Ab] 32 µg/mL): 27
- MIC EUCAST, range in parentheses [2, 5]: 2 to 8 µg/mL
- MIC EUCAST [2, 6]: 4 µg/mL (≈ 9.36 µM)
- MIC EUCAST, range in parentheses [3]: 1 to 4 µg/mL
- MIC EUCAST [3]: 2 µg/mL (≈ 4.68 µM)

SMILES: CN[C@H](CC(C)C)C(=O)N[C@H]1C(=O)N[C@@H](CC(N)=O)C(=O)N[C@H]2C(=O)N[C@H]3C(=O)N[C@H](C(=O)N[C@H](C(=O)O)c4cc(O)cc(O)c4-c4cc3ccc4O)[C@H](O)c3ccc(c(Cl)c3)Oc3cc2cc(c3O[C@@H]2O[C@H](CO)[C@@H](O)[C@H](O)[C@H]2O[C@H]2C[C@](C)(N)[C@H](O)[C@H](C)O2)Oc2ccc(cc2Cl)[C@H]1O [Vancomycin]
- F=the rate of change in glucose concentration in relation to the reference ([1]; [Ab] 0,5 µg/mL): 82%
- Glucose concentration t=0 ([1]; [Ab] 0,5 µg/mL): 154
- Glucose concentration t=60 ([1]; [Ab] 0,5 µg/mL): 155
- Glucose concentration t=120 ([1]; [Ab] 0,5 µg/mL): 148
- Glucose concentration t=180 ([1]; [Ab] 0,5 µg/mL): 96
- dC/dT ([1]; [Ab] 0,5 µg/mL): 30
- F=the rate of change in glucose concentration in relation to the reference ([1]; [Ab] 0,25 µg/mL): 82%
- Glucose concentration t=0 ([1]; [Ab] 0,25 µg/mL): 143
- Glucose concentration t=60 ([1]; [Ab] 0,25 µg/mL): 155
- Glucose concentration t=120 ([1]; [Ab] 0,25 µg/mL): 146
- Glucose concentration t=180 ([1]; [Ab] 0,25 µg/mL): 96
- dC/dT ([1]; [Ab] 0,25 µg/mL): 30
- F=the rate of change in glucose concentration in relation to the reference ([1]; [Ab] 1 µg/mL): 75%
- Glucose concentration t=0 ([1]; [Ab] 1 µg/mL): 151
- Glucose concentration t=60 ([1]; [Ab] 1 µg/mL): 164
- Glucose concentration t=120 ([1]; [Ab] 1 µg/mL): 153
- Glucose concentration t=180 ([1]; [Ab] 1 µg/mL): 110
- dC/dT ([1]; [Ab] 1 µg/mL): 27
- F=the rate of change in glucose concentration in relation to the reference ([1]; [Ab] 2 µg/mL): 29%
- Glucose concentration t=0 ([1]; [Ab] 2 µg/mL): 147
- Glucose concentration t=60 ([1]; [Ab] 2 µg/mL): 160
- Glucose concentration t=120 ([1]; [Ab] 2 µg/mL): 152
- Glucose concentration t=180 ([1]; [Ab] 2 µg/mL): 139
- Glucose concentration t=240 ([1]; [Ab] 2 µg/mL): 94
- dC/dT ([1]; [Ab] 2 µg/mL): 11
- F=the rate of change in glucose concentration in relation to the reference ([1]; [Ab] 4 µg/mL): 19%
- Glucose concentration t=0 ([1]; [Ab] 4 µg/mL): 147
- Glucose concentration t=60 ([1]; [Ab] 4 µg/mL): 162
- Glucose concentration t=120 ([1]; [Ab] 4 µg/mL): 153
- Glucose concentration t=180 ([1]; [Ab] 4 µg/mL): 148
- Glucose concentration t=240 ([1]; [Ab] 4 µg/mL): 149
- dC/dT ([1]; [Ab] 4 µg/mL): 7
- F=the rate of change in glucose concentration in relation to the reference ([1]; [Ab] 8 µg/mL): 7%
- Glucose concentration t=0 ([1]; [Ab] 8 µg/mL): 150
- Glucose concentration t=60 ([1]; [Ab] 8 µg/mL): 156
- Glucose concentration t=120 ([1]; [Ab] 8 µg/mL): 146
- Glucose concentration t=180 ([1]; [Ab] 8 µg/mL): 151
- Glucose concentration t=240 ([1]; [Ab] 8 µg/mL): 145
- dC/dT ([1]; [Ab] 8 µg/mL): 3
- F=the rate of change in glucose concentration in relation to the reference ([1]; [Ab] 0,125 µg/mL): 83%
- Glucose concentration t=0 ([1]; [Ab] 0,125 µg/mL): 148
- Glucose concentration t=60 ([1]; [Ab] 0,125 µg/mL): 154
- Glucose concentration t=120 ([1]; [Ab] 0,125 µg/mL): 149
- Glucose concentration t=180 ([1]; [Ab] 0,125 µg/mL): 94
- dC/dT ([1]; [Ab] 0,125 µg/mL): 30
- F=the rate of change in glucose concentration in relation to the reference ([1]; [Ab] 0,0625 µg/mL): 93%
- Glucose concentration t=0 ([1]; [Ab] 0,0625 µg/mL): 145
- Glucose concentration t=60 ([1]; [Ab] 0,0625 µg/mL): 156
- Glucose concentration t=120 ([1]; [Ab] 0,0625 µg/mL): 139
- Glucose concentration t=180 ([1]; [Ab] 0,0625 µg/mL): 89
- dC/dT ([1]; [Ab] 0,0625 µg/mL): 34
- MIC EUCAST, range in parentheses [4, 5]: 1 to 4 µg/mL
- MIC EUCAST [4, 6]: 2 µg/mL (≈ 1.38 µM)
- MIC EUCAST, range in parentheses [3]: 0.5 to 2 µg/mL
- MIC EUCAST [3]: 1 µg/mL (≈ 0.69 µM)
